The values below come from publication PMC9574860, “Chemical Toolkit for PARK7: Potent, Selective, and High-Throughput” (Journal of Medicinal Chemistry, 2022).

Holding throughout (assay type): biochemical
One assay concerns DUBs. The assay is described as follows: DUB activity profiling in HEK293T cell lysate with general DUB probe Rho-Ub-PA. The conditions noted are these: compound 5 μM 1 h 37 °C, then Rho-Ub-PA 30 min, Figure S5. Here is the method: Due to the structural similarity of PARK7 inhibitor JYQ-88 and UCHL1 inhibitor 8RK64 and the fact that many cyanimide-containing compounds have been identified as DUB inhibitors,[35],[37] we investigated the inhibitory potential of JYQ-88 and JYQ-92 toward DUBs. After treating the HEK293T cell lysate with JYQ-88 and JYQ-92, along with UCHL1 inhibitors, 6RK73 and 8RK64 as controls,[38] the remaining activity of DUBs was determined using the general DUB probe Rho-Ub-PA (Figure S5).[39]
Figure S5. Fluorescence labeling of DUBs to investigate their remaining activity by Rh-Ub-
PA after the treatment with PARK7 inhibitor JYQ-88 and probe JYQ-92. UCHL1 inhibitors,
6RK73 and 8RK64, were used as a control. HEK293T cell lysate was treated with 5 μM final
MOPS SDS running buffer (Novex, NuPAGE) and visualized by fluorescence scanning on a
Typhoon FLA 9500 (GE Healthcare Life Sciences) using a Rhodamine channel (λex/em
(1 picture or pasted object on this page, not shown here)

A further assay concerns the target T1, UCHL1 (Homo sapiens, UniProt P09936).
T1 sequence (P09936 1-223): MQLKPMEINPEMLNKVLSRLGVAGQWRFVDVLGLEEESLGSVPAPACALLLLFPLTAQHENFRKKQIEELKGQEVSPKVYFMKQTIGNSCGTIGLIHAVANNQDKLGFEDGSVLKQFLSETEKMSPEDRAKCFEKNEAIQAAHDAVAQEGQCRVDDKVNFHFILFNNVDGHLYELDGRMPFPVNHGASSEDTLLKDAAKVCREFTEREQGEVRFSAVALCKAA
Briefly: UCHL1 activity assay (Ub-Rho-Morpholine or Ub-AMC substrate). The note with it: UCHL1 1 nM, 1 h preincubation.

In the next assay the target is T2, PARK7 (Homo sapiens, UniProt Q99497).
T2 sequence (Q99497 1-189): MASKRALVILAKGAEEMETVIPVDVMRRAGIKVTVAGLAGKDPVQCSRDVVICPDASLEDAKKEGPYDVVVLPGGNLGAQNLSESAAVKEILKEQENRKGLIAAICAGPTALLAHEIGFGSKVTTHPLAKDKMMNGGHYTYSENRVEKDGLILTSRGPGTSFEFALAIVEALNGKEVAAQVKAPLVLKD
The assay is described as follows: Gel-based competition assay in HEK293T cell lysate with probe JYQ-92. Details: GST (N, cleaved yes); made in house; host or cells: E. coli BL21(DE3) Rosetta2. The conditions noted are these: inhibitor 1 h 37 °C, then JYQ-92 1 μM 30 min, Figure 4E. The source says: We next assessed whether we could measure the inhibitory activity of an inhibitor against PARK7 in a cell lysate using JYQ-92 to label the remaining activity of PARK7. […] The disappearance of the labeling band is a measure for inhibition.

pIC50: −log10 of the molar value. “Also recorded” adds a separate entry of the source. Like-named read-outs stand apart in the source and are kept apart here.

A word on the pIC50: it is the IC50 on a negative log10 scale, so that one unit is a factor of ten. Take `N#CN1CC[C@@H](C(=O)Nc2nc3c(s2)CN(C(=O)CN=[N+]=[N-])CC3)C1` [JYQ-88, (R)-N-(5-(2-Azidoacetyl)-4,5,6,7-tetrahydrothiazolo[5,4-c]pyridin-2-yl)-1-cyanopyrrolidine-3carboxamide]: the “Effect on remaining DUB activity (Rho-Ub-PA labeled bands)” value in the assay on DUBs was “no influence on DUB activity; also recorded: without showing any effect”. For the same compound, the negative-log IC50 (pIC50) at UCHL1 (Figure 3E, read-out: UCHL1 IC50) was 4.95. For the same compound, the negative-log IC50 (pIC50) at UCHL1 (read-out: UbRhoMP assay UCHL1 IC50) is 4.95. On PARK7, the “Inhibitor concentration at which the PARK7 labeling band intensity is already decreased” value was determined as 0.1 µM and the “Inhibitor concentration from which the PARK7 labeling band has nearly disappeared” value was 1 µM.
